Here are results for 1 compound from article PMC10641818, “Development of First-in-Class Dual Sirt2/HDAC6 Inhibitors as Molecular Tools for Dual Inhibition of Tubulin Deacetylation” (Journal of Medicinal Chemistry, 2023).

The target of assay [1] is T1, Sirt2 (Homo sapiens, UniProt Q8IXJ6).
T1 construct: the respective sirtuin (Sirt1_134–747, Sirt2_56–356, or Sirt3_118–395) was mixed with; made in house; host or cells: Escherichia coli BL21 Star (DE3)
T1 sequence (Q8IXJ6 56-356): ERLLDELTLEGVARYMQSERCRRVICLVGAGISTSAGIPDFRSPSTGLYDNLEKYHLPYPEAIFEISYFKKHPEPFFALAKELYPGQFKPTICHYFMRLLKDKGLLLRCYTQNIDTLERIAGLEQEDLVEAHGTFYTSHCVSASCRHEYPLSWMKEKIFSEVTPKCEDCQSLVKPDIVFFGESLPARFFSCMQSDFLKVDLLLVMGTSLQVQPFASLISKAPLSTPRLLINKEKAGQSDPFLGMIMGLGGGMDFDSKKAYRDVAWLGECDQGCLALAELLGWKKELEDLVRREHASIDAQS
As to the kind of experiment: Sirt2 in vitro deacetylation assay (ZMAL, trypsin-based fluorescence). Type of assay: biochemical. Conditions: deacetylation, mean ± SD.

For assay [2], the target named is T2, Sirt1 (Homo sapiens, UniProt Q96EB6).
T2 construct: the respective sirtuin (Sirt1_134–747, Sirt2_56–356, or Sirt3_118–395) was mixed with; made in house; host or cells: Escherichia coli BL21 Star (DE3)
T2 sequence (Q96EB6 134-747): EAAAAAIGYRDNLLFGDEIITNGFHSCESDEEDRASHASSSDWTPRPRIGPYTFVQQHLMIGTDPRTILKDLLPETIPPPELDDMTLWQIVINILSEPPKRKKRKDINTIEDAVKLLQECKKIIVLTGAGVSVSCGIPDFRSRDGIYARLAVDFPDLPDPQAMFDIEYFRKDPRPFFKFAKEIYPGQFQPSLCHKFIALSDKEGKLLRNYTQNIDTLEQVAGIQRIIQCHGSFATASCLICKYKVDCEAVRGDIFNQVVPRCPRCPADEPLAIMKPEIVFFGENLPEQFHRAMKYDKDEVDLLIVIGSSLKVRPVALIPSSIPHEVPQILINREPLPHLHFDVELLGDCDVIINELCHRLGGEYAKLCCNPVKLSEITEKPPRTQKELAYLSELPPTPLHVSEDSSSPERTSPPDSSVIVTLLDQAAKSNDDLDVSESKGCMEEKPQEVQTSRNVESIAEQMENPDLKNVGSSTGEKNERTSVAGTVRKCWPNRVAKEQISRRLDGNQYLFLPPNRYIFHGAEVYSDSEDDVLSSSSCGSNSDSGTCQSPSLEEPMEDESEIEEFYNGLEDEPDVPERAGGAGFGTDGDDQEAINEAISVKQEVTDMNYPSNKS
As to the kind of experiment: Sirt1 in vitro deacetylation assay (ZMAL). It is filed as biochemical.

Assay [3] deals with T3, Sirt3 (Homo sapiens, UniProt Q9NTG7).
T3 construct: the respective sirtuin (Sirt1_134–747, Sirt2_56–356, or Sirt3_118–395) was mixed with; made in house; host or cells: Escherichia coli BL21 Star (DE3)
T3 sequence (Q9NTG7 118-395): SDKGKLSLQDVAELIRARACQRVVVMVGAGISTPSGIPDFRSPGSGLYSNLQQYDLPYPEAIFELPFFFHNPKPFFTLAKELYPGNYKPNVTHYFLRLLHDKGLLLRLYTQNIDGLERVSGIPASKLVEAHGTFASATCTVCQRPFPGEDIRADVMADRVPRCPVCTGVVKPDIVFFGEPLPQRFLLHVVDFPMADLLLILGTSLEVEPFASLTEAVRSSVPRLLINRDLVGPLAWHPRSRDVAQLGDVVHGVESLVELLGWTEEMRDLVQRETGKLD
The assay can be described thus: Sirt3 in vitro deacetylation assay (ZMAL). Type of assay: biochemical.

Assay [4] addresses T4, HDAC1 (Homo sapiens, UniProt Q13547).
T4 construct: purchased BPS Bioscience 50051
As to the kind of experiment: HDAC1 in vitro deacetylation assay (ZMAL). Type of assay: biochemical. Conditions: deacetylation, mean ± SD.

The target of assay [5] is T5, HDAC2 (Homo sapiens, UniProt Q92769).
T5 construct: purchased BPS Bioscience 50052
The assay can be described thus: HDAC2 in vitro deacetylation assay (ZMAL). Type of assay: biochemical. Conditions: mean ± SD.

The target of assay [6] is T6, HDAC3/NcoR2 (Homo sapiens, UniProt O15379).
T6 construct: purchased BPS Bioscience 50003
As to the kind of experiment: HDAC3 in vitro deacetylation assay (ZMAL). Conditions: mean ± SD. Type of assay: biochemical.

Assay [7] concerns the target T7, Sirt2 (demyristoylation) (Homo sapiens, UniProt Q8IXJ6).
T7 construct: the respective sirtuin (Sirt1_134–747, Sirt2_56–356, or Sirt3_118–395) was mixed with; made in house; host or cells: Escherichia coli BL21 Star (DE3)
T7 sequence (Q8IXJ6 56-356): T1 sequence (Q8IXJ6 56-356)
As to the kind of experiment: Discontinuous Sirt2 demyristoylation assay (ZMML substrate). Conditions: mean ± SD. Type of assay: biochemical.

Assay [8] has as its system HGC27 gastric carcinoma cells. As to the kind of experiment: Cell viability assay (MTS) HGC27. Conditions: Homo sapiens, HGC-27; 72 h, MTS, mean ± SD. Type of assay: cell-based. Here is the method: (§1) Cell viability assays of HGC27 and PC-3M-luc cells were performed by using the Celltiter 96 Aqueous Nonradioactive Proliferation Assay (Promega). Cells were seeded in sterile 96-well plates at a density of 2000 cells per well and incubated overnight at 37 °C and 5% CO2. Compound or vehicle were added to a final concentration of 0.5% DMSO. […] Cells were seeded at densities of 10^4 cells/well for W1 cells or 2 × 10^3 cells/well for MCF-7 cells. Tests were performed in 96-well plates (Sarstedt AG, Nümbrecht, Germany). After incubation overnight, cells were supplemented with half logarithmic dilution series of the indicated compounds and DPBS (PAN Biotech GmbH, Aidenbach, Germany) as control. Then 72 h after addition of cytostatic treatment, the MTT solution (20 μL, 5 mg/mL) was added into the wells for 1 h at 37 °C and 5% CO2 until formazan crystals were formed. The supernatant was removed, and the cells were dissolved in 200 μL of DMSO. Absorption was analyzed at 570 nm, with background subtraction at 690 nm, using a plate reader (Thermomultiscan EX, Thermo, Schwerte, Germany). Cell viability was then determined by nonlinear regression and a four-parameter logistic equation with variable hill slope. […] The significance of the difference of the effects of 33 and 4 + 57 was determined by using an unpaired, two-tailed t test with Welch’s correction, implemented in GraphPad Prism 8.4.0 (GraphPad, USA). Statistical significance was accepted if p < 0.05. Asterisks indicate *p < 0.05, **p < 0.01.

The test system of assay [9] is W1 ovarian cancer cells. As to the kind of experiment: Cell viability assay (MTT) W1. It is filed as cell-based. Conditions: 72 h, @ 50 μM. Here is the method: as §1
The subject of assay [10] is MCF-7 breast cancer cells. The assay can be described thus: Cell viability assay (MTT) MCF-7. It is filed as cell-based. Conditions: 72 h, @ 50 μM. Here is the method: as §1
Assay [11] deals with PC-3M-luc prostate cancer cells. As to the kind of experiment: Cell viability assay (MTS) PC-3M-luc. It is filed as cell-based. Conditions: 72 h, @ 50 μM. Here is the method:
as §1

Assay [12] concerns the target T8, HDAC6 (Homo sapiens, UniProt Q9UBN7).
T8 sequence (Q9UBN7 1-1215): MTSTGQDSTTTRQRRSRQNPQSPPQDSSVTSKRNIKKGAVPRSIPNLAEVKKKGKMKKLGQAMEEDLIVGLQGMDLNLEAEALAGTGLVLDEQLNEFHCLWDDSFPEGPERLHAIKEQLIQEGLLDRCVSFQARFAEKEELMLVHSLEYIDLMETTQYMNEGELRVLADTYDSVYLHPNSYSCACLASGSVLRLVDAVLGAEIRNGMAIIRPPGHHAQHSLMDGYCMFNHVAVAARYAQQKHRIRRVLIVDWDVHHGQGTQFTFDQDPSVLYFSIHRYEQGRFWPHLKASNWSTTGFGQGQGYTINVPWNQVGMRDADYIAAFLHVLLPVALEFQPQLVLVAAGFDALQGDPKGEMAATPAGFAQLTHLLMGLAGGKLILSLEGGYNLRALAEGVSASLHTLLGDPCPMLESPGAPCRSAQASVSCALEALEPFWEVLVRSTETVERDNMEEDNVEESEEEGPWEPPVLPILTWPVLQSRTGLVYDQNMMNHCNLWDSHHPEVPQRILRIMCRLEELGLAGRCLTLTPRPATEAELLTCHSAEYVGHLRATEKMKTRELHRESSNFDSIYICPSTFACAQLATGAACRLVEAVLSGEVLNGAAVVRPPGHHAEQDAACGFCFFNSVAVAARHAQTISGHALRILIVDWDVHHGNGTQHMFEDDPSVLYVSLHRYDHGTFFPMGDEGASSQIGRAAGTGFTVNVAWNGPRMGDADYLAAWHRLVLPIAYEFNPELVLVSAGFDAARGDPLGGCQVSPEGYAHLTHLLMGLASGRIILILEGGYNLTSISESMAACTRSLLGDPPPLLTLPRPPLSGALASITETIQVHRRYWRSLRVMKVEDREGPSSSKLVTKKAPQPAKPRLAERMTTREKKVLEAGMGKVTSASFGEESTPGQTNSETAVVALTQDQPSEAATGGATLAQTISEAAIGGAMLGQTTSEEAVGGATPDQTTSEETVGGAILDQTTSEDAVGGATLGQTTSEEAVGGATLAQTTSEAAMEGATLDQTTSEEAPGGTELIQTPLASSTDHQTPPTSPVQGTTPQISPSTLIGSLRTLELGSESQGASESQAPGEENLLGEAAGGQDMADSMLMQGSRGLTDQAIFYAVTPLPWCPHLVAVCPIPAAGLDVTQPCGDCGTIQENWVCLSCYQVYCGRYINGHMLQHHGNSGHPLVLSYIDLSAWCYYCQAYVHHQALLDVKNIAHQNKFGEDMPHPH
As to the kind of experiment: HDAC6 in vitro deacetylation assay (ZMAL). Type of assay: biochemical. Also noted: purchased BPS Bioscience 50006. Conditions: deacetylation, mean ± SD.

T4 sequence (Q13547 whole entry): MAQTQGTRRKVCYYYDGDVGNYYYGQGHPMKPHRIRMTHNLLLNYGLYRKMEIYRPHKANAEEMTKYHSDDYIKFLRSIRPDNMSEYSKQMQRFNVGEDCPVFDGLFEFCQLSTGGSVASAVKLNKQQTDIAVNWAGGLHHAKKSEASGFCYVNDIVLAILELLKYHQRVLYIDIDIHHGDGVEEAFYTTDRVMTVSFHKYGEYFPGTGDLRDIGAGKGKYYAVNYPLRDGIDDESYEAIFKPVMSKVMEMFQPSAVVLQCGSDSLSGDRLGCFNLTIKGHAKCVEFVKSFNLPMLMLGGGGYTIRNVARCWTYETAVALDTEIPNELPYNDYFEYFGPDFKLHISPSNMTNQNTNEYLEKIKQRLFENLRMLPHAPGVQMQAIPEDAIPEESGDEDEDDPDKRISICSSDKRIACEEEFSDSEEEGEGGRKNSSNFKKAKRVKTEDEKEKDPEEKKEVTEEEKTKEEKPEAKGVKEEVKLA
T5 sequence (Q92769 whole entry): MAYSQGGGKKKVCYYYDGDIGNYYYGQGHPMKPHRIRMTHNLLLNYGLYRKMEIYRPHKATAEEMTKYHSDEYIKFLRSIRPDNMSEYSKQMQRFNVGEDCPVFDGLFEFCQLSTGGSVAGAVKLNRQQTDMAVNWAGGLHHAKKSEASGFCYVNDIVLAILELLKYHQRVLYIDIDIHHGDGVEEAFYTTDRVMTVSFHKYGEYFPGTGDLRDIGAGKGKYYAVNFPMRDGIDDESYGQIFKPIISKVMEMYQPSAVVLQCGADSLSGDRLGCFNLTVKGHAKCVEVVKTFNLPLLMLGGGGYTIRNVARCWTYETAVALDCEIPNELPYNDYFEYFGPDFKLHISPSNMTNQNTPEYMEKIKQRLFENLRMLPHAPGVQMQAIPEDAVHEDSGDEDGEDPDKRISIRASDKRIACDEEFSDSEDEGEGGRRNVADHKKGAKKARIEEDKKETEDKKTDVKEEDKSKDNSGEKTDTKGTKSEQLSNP
T6 sequence (O15379 whole entry): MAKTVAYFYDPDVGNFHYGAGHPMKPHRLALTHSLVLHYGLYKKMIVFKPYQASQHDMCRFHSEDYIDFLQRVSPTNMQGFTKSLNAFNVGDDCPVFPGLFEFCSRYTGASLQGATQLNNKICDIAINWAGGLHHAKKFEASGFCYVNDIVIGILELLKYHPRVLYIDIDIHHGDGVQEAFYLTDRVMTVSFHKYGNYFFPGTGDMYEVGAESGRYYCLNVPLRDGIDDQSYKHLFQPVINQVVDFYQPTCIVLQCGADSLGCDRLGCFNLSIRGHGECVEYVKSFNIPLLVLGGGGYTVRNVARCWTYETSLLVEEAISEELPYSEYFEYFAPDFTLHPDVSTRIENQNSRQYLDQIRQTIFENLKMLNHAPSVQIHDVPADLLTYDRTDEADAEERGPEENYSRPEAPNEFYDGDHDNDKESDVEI
T6 sequence (Q9Y618 395-489 partner limits assumed): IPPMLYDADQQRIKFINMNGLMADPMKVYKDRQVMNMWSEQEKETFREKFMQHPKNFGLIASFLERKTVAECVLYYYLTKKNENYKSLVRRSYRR

`Cc1cc(C)nc(SCC(=O)Nc2ncc(Cc3cccc(OCc4cn(CCOCCOCCOCCOCCC(=O)Nc5ccc(C(=O)NCCCCCCC(=O)NO)cc5)nn4)c3)s2)n1` [Compound 46, 4-(1-(4-((3-((2-(2-((4,6-Dimethylpyrimidin-2-yl)thio)acetamido)thiazol-5-yl)methyl)phenoxy)methyl)-1H-1,2,3-triazol-1-yl)-3,6,9,12-tetraoxapentadecan-15-amido)-N-(7-(hydroxyamino)-7-oxoheptyl)benzamide]: the IC50 – broadly, the concentration needed to halve the response being measured – came out at 480 ± 70 nM in assay [1]; 210 ± 30 nM in assay [4]; 340 ± 20 nM in assay [5]; 140 ± 10 nM in assay [6]; 13200 ± 1900 nM in assay [7]; 5 ± 0.5 nM in assay [12]. Moreover, the inhibition at 20 µM in assay [2] and in assay [3] was under 15% each time. In addition, it took 17200 ± 1000 nM to reach a half-maximal effect in assay [8] (EC50). Further, in assay [9], the W1 cellular effect entry is recorded as “ni ^b (ni = no inhibition (cellular effect <20% @ 50 μM))”. Besides, the MCF-7 cellular effect result in [10] is on record as “ni ^b (ni = no inhibition (cellular effect <20% @ 50 μM))”. Also, the PC-3M-luc cellular effect result in [11] is given as “ni ^b (ni = no inhibition (cellular effect <20% @ 50 μM))”.
